# From article PMC3848336, “Aurora Isoform Selectivity: Design and Synthesis of Imidazo[4,5-b]pyridine Derivatives as Highly Selective Inhibitors of Aurora-A Kinase in Cells” (Journal of Medicinal Chemistry, 2013)
# Where two headings read alike, the source gives them in different places.
# How the values were obtained:
# Experiment in all cases: Kinase selectivity profiling
# Type in all cases: biochemical
# Aurora B = Aurora B (Homo sapiens, UniProt Q96GD4)
# TBK1 = TBK1 (Homo sapiens, UniProt Q9UHD2)
# Description: (§1) Compound 28c was profiled against a panel of 110 kinases at the International Centre for Protein Kinase Profiling, Division of Signal Transduction Therapy, University of Dundee. Compound 40f was profiled against a panel of 50 kinases (MRC-PPU Express Screen) also at the International Centre for Protein Kinase Profiling.
# TAK1 = TAK1 (Homo sapiens, UniProt O43318)
# Description: as §1
# RSK1 = RSK1 (Homo sapiens, UniProt Q15418)
# Description: as §1
# S6K1 = S6K1 (Homo sapiens, UniProt P23443)
# Description: as §1
# ROCK 2 = ROCK 2 (Rattus norvegicus, UniProt Q62868)
# Description: as §1
# MLK3 = MLK3 (Homo sapiens, UniProt Q16584)
# Description: as §1
# CK2 = CK2 (Homo sapiens, UniProt P68400)
# Description: as §1
# TTK = TTK (Homo sapiens, UniProt P33981)
# Description: as §1
# SYK = SYK (Homo sapiens, UniProt P43405)
# Description: as §1
# EF2K = EF2K (Homo sapiens, UniProt O00418)
# Description: as §1
# JAK2 = JAK2 (Homo sapiens, UniProt O60674)
# Description: as §1
# PKBa = PKBa (Homo sapiens, UniProt P31749, S473D)
# Description: as §1
# NEK6 = NEK6 (Homo sapiens, UniProt Q9HC98)
# Description: as §1
# CAMKKb = CAMKKb (Homo sapiens, UniProt Q96RR4)
# Description: as §1
# PRK2 = PRK2 (Homo sapiens, UniProt Q16513)
# Description: as §1
# PKA = PKA (Homo sapiens, UniProt P17612)
# Description: as §1
# PDK1 = PDK1 (Homo sapiens, UniProt O15530)
# Description: as §1
# PAK4 = PAK4 (Homo sapiens, UniProt O96013)
# Description: as §1
# PKCa = PKCa (Homo sapiens, UniProt P17252)
# Description: as §1
# PLK1 = PLK1 (Homo sapiens, UniProt P53350)
# Description: as §1
# GSK3b = GSK3b (Homo sapiens, UniProt P49841)
# Description: as §1
# EPH-A2 = EPH-A2 (Homo sapiens, UniProt P29317); settings: read-out: % activity remaining, EPH2A2
# Description: as §1
# PKD1 = PKD1 (Homo sapiens, UniProt Q15139)
# Description: as §1
# MST2 = MST2 (Homo sapiens, UniProt Q13188)
# Description: as §1
# CHK2 = CHK2 (Homo sapiens, UniProt O96017)
# Description: as §1
# SmMLCK = SmMLCK (Homo sapiens, UniProt Q15746)
# Description: as §1
# IGF-1R = IGF-1R (Homo sapiens, UniProt P08069); settings: read-out: % activity remaining, IGF21R
# Description: as §1
# Lck = Lck (Homo sapiens, UniProt P06239)
# Description: as §1
# BTK = BTK (Homo sapiens, UniProt Q06187)
# Description: as §1
# HER4 = HER4 (Homo sapiens, UniProt Q15303)
# Description: as §1
# CAMK1 = CAMK1 (Homo sapiens, UniProt Q14012)
# Description: as §1
# VEGFR (VEGFR1) = VEGFR (VEGFR1) (Homo sapiens, UniProt P17948); settings: read-out: % activity remaining, VEG2FR
# Description: as §1
# RIPK2 = RIPK2 (Homo sapiens, UniProt O43353)
# Description: as §1
# IRAK4 = IRAK4 (Homo sapiens, UniProt Q9NWZ3)
# Description: as §1
# SGK1 = SGK1 (Homo sapiens, UniProt O00141)
# Description: as §1
# TrkA = TrkA (Homo sapiens, UniProt P04629)
# Description: as §1
# Src = Src (Homo sapiens, UniProt P12931)
# Description: as §1
# PIM1 = PIM1 (Homo sapiens, UniProt P11309)
# Description: as §1
# MARK3 = MARK3 (Homo sapiens, UniProt P27448)
# Description: as §1
# p38a MAPK = p38a MAPK (Homo sapiens, UniProt Q16539)
# Description: as §1
# SRPK1 = SRPK1 (Homo sapiens, UniProt Q96SB4)
# Description: as §1
# [1] = 50-kinase panel (MRC-PPU Express Screen)
# RSK1, sequence (Q15418 whole entry, species assumed): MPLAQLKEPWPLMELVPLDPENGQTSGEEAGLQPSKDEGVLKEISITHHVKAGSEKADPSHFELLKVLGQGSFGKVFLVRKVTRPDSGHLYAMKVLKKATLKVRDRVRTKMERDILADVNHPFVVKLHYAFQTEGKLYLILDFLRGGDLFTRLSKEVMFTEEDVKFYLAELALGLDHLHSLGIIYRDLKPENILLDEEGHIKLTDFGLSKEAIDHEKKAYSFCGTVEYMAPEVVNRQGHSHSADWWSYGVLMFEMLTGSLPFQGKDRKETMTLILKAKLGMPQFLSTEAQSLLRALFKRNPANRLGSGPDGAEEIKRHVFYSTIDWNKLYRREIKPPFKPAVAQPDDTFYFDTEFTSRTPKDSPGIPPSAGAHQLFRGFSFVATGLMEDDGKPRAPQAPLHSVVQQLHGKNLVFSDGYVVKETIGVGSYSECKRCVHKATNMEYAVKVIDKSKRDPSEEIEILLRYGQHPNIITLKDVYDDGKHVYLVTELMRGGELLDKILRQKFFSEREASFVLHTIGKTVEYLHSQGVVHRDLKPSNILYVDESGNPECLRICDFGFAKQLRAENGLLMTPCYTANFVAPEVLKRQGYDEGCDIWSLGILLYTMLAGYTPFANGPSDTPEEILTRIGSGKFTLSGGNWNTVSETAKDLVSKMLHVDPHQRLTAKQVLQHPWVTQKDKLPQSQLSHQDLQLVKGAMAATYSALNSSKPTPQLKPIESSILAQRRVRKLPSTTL
# GSK3b, sequence (P49841 whole entry): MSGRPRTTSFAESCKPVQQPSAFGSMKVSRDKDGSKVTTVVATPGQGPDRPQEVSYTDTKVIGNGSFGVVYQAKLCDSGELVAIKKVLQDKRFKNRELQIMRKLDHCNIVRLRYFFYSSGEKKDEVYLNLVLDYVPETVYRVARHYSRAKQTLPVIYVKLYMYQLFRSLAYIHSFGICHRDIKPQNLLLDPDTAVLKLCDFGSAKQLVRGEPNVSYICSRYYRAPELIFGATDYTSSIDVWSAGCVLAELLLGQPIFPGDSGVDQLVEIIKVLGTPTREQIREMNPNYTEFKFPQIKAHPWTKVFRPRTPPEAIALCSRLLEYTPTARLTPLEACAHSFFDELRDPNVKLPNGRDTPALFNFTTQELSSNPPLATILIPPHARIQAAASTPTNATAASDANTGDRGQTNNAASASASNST
# CAMK1, sequence (Q14012 whole entry): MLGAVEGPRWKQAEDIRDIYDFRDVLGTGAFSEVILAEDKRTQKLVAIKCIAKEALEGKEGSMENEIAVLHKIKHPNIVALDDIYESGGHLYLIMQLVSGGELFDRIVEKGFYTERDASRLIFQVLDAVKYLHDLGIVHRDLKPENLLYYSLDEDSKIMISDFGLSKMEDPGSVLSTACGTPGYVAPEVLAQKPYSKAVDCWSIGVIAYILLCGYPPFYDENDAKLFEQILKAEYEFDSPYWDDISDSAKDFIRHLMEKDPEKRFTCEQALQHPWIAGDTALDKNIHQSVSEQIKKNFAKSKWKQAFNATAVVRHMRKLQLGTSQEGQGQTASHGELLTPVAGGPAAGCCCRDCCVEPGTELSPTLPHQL
# PKBa, sequence (P31749 118-480 S473D limits assumed): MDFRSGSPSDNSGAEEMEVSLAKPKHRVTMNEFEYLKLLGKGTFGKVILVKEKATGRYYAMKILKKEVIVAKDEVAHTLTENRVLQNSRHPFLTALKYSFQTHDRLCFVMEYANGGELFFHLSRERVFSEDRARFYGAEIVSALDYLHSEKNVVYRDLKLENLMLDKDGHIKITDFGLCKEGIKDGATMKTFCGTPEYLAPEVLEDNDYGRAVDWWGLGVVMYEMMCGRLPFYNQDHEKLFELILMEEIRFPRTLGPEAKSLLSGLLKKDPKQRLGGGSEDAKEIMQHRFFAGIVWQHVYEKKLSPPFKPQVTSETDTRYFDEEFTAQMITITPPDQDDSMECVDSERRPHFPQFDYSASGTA
# Lck, sequence (P06239 whole entry): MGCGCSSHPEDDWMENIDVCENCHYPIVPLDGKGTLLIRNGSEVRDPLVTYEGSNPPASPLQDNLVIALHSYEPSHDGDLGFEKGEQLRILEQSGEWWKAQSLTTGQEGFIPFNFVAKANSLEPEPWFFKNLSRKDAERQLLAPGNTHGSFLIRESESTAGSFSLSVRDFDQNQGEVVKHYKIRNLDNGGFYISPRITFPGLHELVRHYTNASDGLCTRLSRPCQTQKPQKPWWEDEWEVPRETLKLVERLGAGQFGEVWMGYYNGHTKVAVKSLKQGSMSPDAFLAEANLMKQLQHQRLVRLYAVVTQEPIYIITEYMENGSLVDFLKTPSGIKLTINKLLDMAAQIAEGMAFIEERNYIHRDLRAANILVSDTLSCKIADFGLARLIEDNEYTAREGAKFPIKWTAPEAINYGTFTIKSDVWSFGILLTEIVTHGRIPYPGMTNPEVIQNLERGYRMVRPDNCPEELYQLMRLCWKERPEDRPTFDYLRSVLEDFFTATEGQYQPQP
# MST2, sequence (Q13188 whole entry): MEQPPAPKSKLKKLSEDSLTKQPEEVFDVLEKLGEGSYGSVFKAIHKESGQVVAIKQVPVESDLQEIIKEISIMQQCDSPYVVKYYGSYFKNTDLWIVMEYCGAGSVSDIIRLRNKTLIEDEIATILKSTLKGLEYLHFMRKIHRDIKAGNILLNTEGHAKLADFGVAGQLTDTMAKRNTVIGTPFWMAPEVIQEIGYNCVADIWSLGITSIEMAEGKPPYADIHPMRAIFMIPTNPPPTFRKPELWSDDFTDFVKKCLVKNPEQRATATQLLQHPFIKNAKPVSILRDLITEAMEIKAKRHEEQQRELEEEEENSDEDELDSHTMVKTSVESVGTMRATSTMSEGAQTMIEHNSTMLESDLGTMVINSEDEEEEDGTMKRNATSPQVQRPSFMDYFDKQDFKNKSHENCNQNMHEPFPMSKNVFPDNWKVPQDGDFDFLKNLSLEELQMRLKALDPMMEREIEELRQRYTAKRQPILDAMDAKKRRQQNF
# ROCK 2, sequence (Q62868 2-543 limits assumed): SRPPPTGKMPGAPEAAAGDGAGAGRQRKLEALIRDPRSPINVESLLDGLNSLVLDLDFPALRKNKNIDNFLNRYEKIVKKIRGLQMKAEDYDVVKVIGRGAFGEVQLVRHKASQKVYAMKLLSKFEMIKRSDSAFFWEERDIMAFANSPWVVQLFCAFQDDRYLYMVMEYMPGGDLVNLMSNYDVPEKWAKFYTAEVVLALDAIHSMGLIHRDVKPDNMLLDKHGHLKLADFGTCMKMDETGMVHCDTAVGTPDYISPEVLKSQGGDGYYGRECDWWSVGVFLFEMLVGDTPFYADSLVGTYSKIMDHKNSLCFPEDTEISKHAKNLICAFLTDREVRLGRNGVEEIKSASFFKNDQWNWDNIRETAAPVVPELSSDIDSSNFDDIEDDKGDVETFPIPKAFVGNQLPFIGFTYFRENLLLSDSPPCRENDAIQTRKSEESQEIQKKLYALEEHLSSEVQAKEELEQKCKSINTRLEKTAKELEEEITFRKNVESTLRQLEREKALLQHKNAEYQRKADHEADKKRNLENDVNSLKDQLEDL
# PIM1, sequence (P11309 whole entry): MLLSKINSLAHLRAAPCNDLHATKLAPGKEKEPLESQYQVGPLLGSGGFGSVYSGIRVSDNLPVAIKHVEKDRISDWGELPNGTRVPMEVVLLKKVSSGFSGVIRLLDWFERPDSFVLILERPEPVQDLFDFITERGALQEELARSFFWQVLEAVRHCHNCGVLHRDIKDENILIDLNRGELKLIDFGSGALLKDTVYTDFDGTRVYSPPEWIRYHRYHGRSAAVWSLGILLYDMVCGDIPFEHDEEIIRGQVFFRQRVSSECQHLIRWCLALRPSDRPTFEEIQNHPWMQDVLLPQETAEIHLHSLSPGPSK
# Aurora B, sequence (Q96GD4 whole entry): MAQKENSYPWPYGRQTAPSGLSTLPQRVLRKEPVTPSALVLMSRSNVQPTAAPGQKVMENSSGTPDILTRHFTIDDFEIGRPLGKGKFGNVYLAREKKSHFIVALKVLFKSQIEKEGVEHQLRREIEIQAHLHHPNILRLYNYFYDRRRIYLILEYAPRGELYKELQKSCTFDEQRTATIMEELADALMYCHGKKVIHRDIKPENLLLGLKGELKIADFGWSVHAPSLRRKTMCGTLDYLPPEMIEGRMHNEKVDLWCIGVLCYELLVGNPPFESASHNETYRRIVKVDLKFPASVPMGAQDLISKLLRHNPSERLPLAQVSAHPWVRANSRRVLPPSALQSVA
# NEK6, sequence (Q9HC98 whole entry): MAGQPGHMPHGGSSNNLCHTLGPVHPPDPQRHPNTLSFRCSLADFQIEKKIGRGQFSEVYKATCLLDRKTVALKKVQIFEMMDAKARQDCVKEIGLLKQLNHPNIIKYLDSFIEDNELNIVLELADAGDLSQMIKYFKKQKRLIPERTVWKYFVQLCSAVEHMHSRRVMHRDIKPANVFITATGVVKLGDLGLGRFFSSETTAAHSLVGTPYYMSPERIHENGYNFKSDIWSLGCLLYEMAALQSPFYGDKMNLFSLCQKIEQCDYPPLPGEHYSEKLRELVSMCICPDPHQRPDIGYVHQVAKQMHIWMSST
# CK2, sequence (P68400 whole entry): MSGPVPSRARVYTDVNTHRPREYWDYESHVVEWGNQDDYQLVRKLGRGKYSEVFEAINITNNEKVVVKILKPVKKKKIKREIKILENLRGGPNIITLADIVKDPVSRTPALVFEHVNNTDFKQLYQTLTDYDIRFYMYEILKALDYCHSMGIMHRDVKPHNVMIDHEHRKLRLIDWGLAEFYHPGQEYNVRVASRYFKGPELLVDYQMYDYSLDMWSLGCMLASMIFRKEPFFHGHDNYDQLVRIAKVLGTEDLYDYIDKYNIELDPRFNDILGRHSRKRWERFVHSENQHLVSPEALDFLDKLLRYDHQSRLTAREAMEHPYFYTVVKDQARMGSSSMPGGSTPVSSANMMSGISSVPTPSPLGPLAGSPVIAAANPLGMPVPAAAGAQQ
structure (smiles),measurement,setting,value
"Cc1nn(C)cc1-c1nc2c(Oc3ccc(C(=O)Nc4ccccc4)cc3)c(Cl)cnc2[nH]1 [compound 28c, 4-((6-Chloro-2-(1,3-dimethyl-1H-pyrazol-4-yl)-3H-imidazo[4,5-b]pyridin-7-yl)oxy)-N-phenylbenzamide]",remaining activity at 1 µM,Aurora B; 110-kinase panel,25%
same,remaining activity at 1 µM,TBK1; 110-kinase panel,86%
same,remaining activity at 1 µM,TAK1; 110-kinase panel,31%
same,remaining activity at 1 µM,RSK1; 110-kinase panel,88%
same,remaining activity at 1 µM,S6K1; 110-kinase panel,81%
same,remaining activity at 1 µM,ROCK 2; 110-kinase panel,80%
same,remaining activity at 1 µM,MLK3; 110-kinase panel,46%
same,remaining activity at 1 µM,CK2; 110-kinase panel,108%
same,remaining activity at 1 µM,TTK; 110-kinase panel,102%
same,remaining activity at 1 µM,SYK; 110-kinase panel,117%
same,remaining activity at 1 µM,EF2K; 110-kinase panel,93%
same,remaining activity at 1 µM,JAK2; 110-kinase panel,63%
same,remaining activity at 1 µM,PKBa; 110-kinase panel,105%
same,remaining activity at 1 µM,NEK6; 110-kinase panel,129%
same,remaining activity at 1 µM,CAMKKb; 110-kinase panel,86%
same,remaining activity at 1 µM,PRK2; 110-kinase panel,81%
same,remaining activity at 1 µM,PKA; 110-kinase panel,101%
same,remaining activity at 1 µM,PDK1; 110-kinase panel,87%
same,remaining activity at 1 µM,PAK4; 110-kinase panel,82%
same,remaining activity at 1 µM,PKCa; 110-kinase panel,110%
same,remaining activity at 1 µM,PLK1; 110-kinase panel,107%
same,remaining activity at 1 µM,GSK3b; 110-kinase panel,8%
same,remaining activity at 1 µM,EPH-A2; 110-kinase panel,138%
same,remaining activity at 1 µM,PKD1; 110-kinase panel,109%
same,remaining activity at 1 µM,MST2; 110-kinase panel,106%
same,remaining activity at 1 µM,CHK2; 110-kinase panel,111%
same,remaining activity at 1 µM,SmMLCK; 110-kinase panel,91%
same,remaining activity at 1 µM,IGF-1R; 110-kinase panel,98%
same,remaining activity at 1 µM,Lck; 110-kinase panel,110%
same,remaining activity at 1 µM,BTK; 110-kinase panel,110%
same,remaining activity at 1 µM,HER4; 110-kinase panel,95%
same,remaining activity at 1 µM,CAMK1; 110-kinase panel,100%
same,remaining activity at 1 µM,VEGFR (VEGFR1); 110-kinase panel,17%
same,remaining activity at 1 µM,RIPK2; 110-kinase panel,98%
same,remaining activity at 1 µM,IRAK4; 110-kinase panel,95%
same,remaining activity at 1 µM,SGK1; 110-kinase panel,99%
same,remaining activity at 1 µM,TrkA; 110-kinase panel,100%
same,remaining activity at 1 µM,Src; 110-kinase panel,80%
same,remaining activity at 1 µM,PIM1; 110-kinase panel,99%
same,remaining activity at 1 µM,MARK3; 110-kinase panel,83%
same,remaining activity at 1 µM,p38a MAPK; 110-kinase panel,91%
same,remaining activity at 1 µM,SRPK1; 110-kinase panel,89%
"Cc1nn(C)cc1-c1nc2c(Oc3ccc(C(=O)NC4CCC4)cc3)c(Cl)cnc2[nH]1 [compound 40f, 4-((6-Chloro-2-(1,3-dimethyl-1H-pyrazol-4-yl)-3H-imidazo[4,5-b]pyridin-7-yl)oxy)-N-cyclobutylbenzamide]",remaining activity at 1 µM,Aurora B; [1],66%
same,remaining activity at 1 µM,TBK1; [1],93%
same,remaining activity at 1 µM,TAK1; [1],59%
same,remaining activity at 1 µM,RSK1; [1],90%
same,remaining activity at 1 µM,S6K1; [1],81%
same,remaining activity at 1 µM,ROCK 2; [1],73%
same,remaining activity at 1 µM,MLK3; [1],31%
same,remaining activity at 1 µM,CK2; [1],93%
same,remaining activity at 1 µM,TTK; [1],74%
same,remaining activity at 1 µM,SYK; [1],84%
same,remaining activity at 1 µM,EF2K; [1],100%
same,remaining activity at 1 µM,JAK2; [1],75%
same,remaining activity at 1 µM,PKBa; [1],96%
same,remaining activity at 1 µM,NEK6; [1],90%
same,remaining activity at 1 µM,CAMKKb; [1],86%
same,remaining activity at 1 µM,PRK2; [1],92%
same,remaining activity at 1 µM,PKA; [1],90%
same,remaining activity at 1 µM,PDK1; [1],86%
same,remaining activity at 1 µM,PAK4; [1],89%
same,remaining activity at 1 µM,PKCa; [1],96%
same,remaining activity at 1 µM,PLK1; [1],104%
same,remaining activity at 1 µM,GSK3b; [1],25%
same,remaining activity at 1 µM,EPH-A2; [1],88%
same,remaining activity at 1 µM,PKD1; [1],113%
same,remaining activity at 1 µM,MST2; [1],141%
same,remaining activity at 1 µM,CHK2; [1],85%
same,remaining activity at 1 µM,SmMLCK; [1],87%
same,remaining activity at 1 µM,IGF-1R; [1],78%
same,remaining activity at 1 µM,Lck; [1],95%
same,remaining activity at 1 µM,BTK; [1],101%
same,remaining activity at 1 µM,HER4; [1],92%
same,remaining activity at 1 µM,CAMK1; [1],85%
same,remaining activity at 1 µM,VEGFR (VEGFR1); [1],7%
same,remaining activity at 1 µM,RIPK2; [1],107%
same,remaining activity at 1 µM,IRAK4; [1],89%
same,remaining activity at 1 µM,SGK1; [1],85%
same,remaining activity at 1 µM,TrkA; [1],58%
same,remaining activity at 1 µM,Src; [1],86%
same,remaining activity at 1 µM,PIM1; [1],87%
same,remaining activity at 1 µM,MARK3; [1],107%
same,remaining activity at 1 µM,p38a MAPK; [1],107%
same,remaining activity at 1 µM,SRPK1; [1],95%
